In US20160152995A1, “METHODS AND COMPOSITIONS TO IMPROVE THE SPREAD OF CHEMICAL SIGNALS IN PLANTS” (PIONEER HI-BRED INTERNATIONAL, INC., priority 2013, published 2016):

Assays:
[1] = tested on: DsRED gene expression; assay: DsRED induction in transgenic tobacco leaf disks and T1 seedlings with Ethametsulfuron; type: in vivo, Nicotiana tabacum; details: T1 seeds germinated on 1 ppm Ethametsulfuron, monitored thru four leaf stage
Excerpt: A summary of the constructs shown in FIG. 4 is provided below in table 29. All vectors contain a right border (RB) proximal 35S::3xtetO-DsRED-UBQ3 inducible reporter cassette, a 35S::1xtetO-EsR(L13-32)-UBQ14 repressor cassette, and a SAMS-HRA-ALS left border (LB) proximal selectable marker. Inserted either upstream (pHD1194-1196) or downstream ([…]) of the repressor cassette are MMV::3xOp-siRNA^rep-Pin2 cassettes composed of an inverted repeat of the full length repressor coding region (no ATG-pHD1194 and 1197) or limited to the 5′ (pHD1195 & 1198) or 3′ (pHD1196 & 1199) halves of the SU repressor coding region linked by an intron spacer region. The MMV::tetO promoter was chosen so as not to cause silencing of the 35S::tetO promoter controlling target transgene expression. In this particular example the spacer region is the potato ST-LS1 gene intron IV2 (Construction of an intron-containing marker gene: splicing of the intron in transgenic plants and its use in monitoring early events in Agrobacterium-mediated plant transformation. Vancanneyt et al. (1990) Mol Gen Genet. 220(2):245-50). […] Nine fully derepressed DsRED positive seedings for each event were then transplanted into soil and their fluorescence phenotype monitored thru the four leaf developmental stage. […]

[2] = tested on: DS-RED expression; assay: DS-RED induction in soybean T0 leaf discs floated on ethametsulfuron; type: in vivo; details: soybean T0 leaf discs of experimental plants (pPHP46864, amiRNA) vs control pPHP46916; 0.05 ppm or 0.5 ppm, 3-4 days
Excerpt: (§1) The first, a control construct, pPHP46916 (10,904 bp) (SEQ ID NO: 2111) contains the following cassettes: cassette A comprising a Glycine max s-adenosylmethionine promoter operably linked to the Glycine max acetolactate synthase gene with HrA mutations operably linked to a Glycine max acetolactate synthase terminator (this cassette serves as a selectable marker during plant transformation; position 81-4062); followed by cassette B comprising the T7 promoter operably linked to hygromycin phosphotransferase operably linked to a T7 terminator (which serves as a selectable marker in E. coli, positions 5448-6586); followed by cassette C comprising a cauliflower mosaic virus 35S promoter with three copies of the TET operator embedded operably linked to DS-RED Express that has the potato LS1 intron; operably linked to the cauliflower mosaic virus 35S terminator (position 6862-8455), followed by cassette D comprising the Glycine max elongation factor 1a2 promoter operably linked to the repressor protein ESR (L10-B7) operably linked to the nos terminator (position 8474-10893). The second, experimental construct, pPHP46864 (11,868 bp) (SEQ ID NO:2112) is exactly the same except embedded within the potato LS1 intron at the Mfe1 site is a 964 bp cassette containing the Glycine max microRNA precursor 159 containing a microRNA that targets the repressor protein. […]

[3] = tested on: DS-red signal; assay: DS-red signal in soybean T1 plants from seed imbibed with chlorsulfuron; type: in vivo; details: T1 seed imbibed with 1 ppm, two weeks
Excerpt: as §1

SMILES	DsRED expression signal ([1]; pHD1180 control tobacco events (no siRNA cassette))	DsRED intensity level ([1]; tobacco lines containing the MMV::tetO-siRNArep cassette (pHD1194-1199))	pattern of DS-RED expression in inducible leaf discs [2]	DS-red signal ([3]; control soybean plants (pPHP46916))	DS-red signal ([3]; experimental soybean plants (pPHP46864, amiRNA))
CCOc1nc(NC)nc(NC(=O)NS(=O)(=O)c2ccccc2C(=O)OC)n1 [Ethametsulfuron, Ethametsulfuron-methyl]	modest and diminishes	high and remains so with time	smoother, more even pattern of expression	–	–
COc1nc(C)nc(NC(=O)NS(=O)(=O)c2ccccc2Cl)n1 [chlorsulfuron]	–	–	–	no DS-red signal found in root, stem or cotyledon	weak DS-red signal
